This is an account of results in ChEMBL document CHEMBL5653615 (J Biol Chem, 2013).

The source made the active and inactive calls. No cut-off for these calls is given here.

Assay [1] deals with T1, Mitogen-activated protein kinase kinase kinase 5 (Homo sapiens) (UniProt Q99683).
T1 sequence (whole entry): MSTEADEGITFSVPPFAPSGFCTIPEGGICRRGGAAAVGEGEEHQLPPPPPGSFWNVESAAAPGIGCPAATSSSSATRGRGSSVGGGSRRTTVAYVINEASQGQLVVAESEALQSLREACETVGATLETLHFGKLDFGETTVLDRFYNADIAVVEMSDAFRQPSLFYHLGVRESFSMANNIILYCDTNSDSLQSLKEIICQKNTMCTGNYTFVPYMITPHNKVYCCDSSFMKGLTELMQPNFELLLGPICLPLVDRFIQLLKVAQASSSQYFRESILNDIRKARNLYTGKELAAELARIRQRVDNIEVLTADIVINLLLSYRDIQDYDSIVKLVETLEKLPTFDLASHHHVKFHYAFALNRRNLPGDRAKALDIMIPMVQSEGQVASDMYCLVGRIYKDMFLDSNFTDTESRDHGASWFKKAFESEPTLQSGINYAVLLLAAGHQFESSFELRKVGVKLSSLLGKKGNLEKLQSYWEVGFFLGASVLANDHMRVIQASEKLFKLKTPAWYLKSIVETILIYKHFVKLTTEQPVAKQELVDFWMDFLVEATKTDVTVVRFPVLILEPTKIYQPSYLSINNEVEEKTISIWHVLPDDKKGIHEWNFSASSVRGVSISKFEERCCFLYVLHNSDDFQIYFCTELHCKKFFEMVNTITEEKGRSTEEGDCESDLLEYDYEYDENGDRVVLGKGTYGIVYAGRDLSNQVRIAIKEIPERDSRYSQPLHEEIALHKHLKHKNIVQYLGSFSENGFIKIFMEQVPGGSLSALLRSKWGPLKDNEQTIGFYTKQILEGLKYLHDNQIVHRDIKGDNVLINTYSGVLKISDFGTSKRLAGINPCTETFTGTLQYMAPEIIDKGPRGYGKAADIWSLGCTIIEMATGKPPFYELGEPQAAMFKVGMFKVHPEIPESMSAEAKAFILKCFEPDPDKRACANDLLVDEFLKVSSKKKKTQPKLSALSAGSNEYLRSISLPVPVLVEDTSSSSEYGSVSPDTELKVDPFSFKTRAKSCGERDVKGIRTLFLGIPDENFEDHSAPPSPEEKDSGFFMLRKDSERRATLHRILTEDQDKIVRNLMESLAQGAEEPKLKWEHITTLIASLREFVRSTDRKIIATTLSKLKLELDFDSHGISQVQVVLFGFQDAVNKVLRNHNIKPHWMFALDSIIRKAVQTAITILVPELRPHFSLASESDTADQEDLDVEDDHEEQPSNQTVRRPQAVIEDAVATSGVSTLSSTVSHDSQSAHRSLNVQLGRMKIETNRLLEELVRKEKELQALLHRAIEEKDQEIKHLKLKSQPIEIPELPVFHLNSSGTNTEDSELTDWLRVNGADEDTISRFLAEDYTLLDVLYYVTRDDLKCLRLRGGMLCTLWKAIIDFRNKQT
Kind of assay: Inhibition of human ASK1 at 500 nM by HotSpot assay relative to control.

Assay [2] deals with T2, Aurora kinase A (Homo sapiens) (UniProt O14965).
T2 sequence (whole entry): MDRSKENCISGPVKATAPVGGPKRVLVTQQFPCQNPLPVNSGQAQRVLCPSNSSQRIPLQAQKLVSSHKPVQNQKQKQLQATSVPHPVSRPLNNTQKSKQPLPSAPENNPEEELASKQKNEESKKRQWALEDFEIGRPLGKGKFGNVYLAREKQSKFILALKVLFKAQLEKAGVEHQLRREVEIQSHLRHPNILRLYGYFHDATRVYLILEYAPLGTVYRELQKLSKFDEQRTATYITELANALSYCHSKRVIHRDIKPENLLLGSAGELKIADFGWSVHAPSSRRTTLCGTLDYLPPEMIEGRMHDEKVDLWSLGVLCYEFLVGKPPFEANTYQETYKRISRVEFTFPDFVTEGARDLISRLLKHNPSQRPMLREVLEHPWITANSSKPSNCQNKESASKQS
Kind of assay: Inhibition of human Aurora A at 500 nM by HotSpot assay relative to control.

The target of assay [3] is Homeodomain-interacting protein kinase 1 (Homo sapiens) (UniProt Q86Z02). Description: Inhibition of human HIPK1 at 500 nM by HotSpot assay relative to control.
In assay [4] the target is Tyrosine-protein kinase Lck (Homo sapiens) (UniProt P06239). Kind of assay: Inhibition of human LCK at 500 nM by HotSpot assay relative to control.
In assay [5] the target is T3, Serine/threonine-protein kinase D1 (Homo sapiens) (UniProt Q15139).
T3 sequence (whole entry): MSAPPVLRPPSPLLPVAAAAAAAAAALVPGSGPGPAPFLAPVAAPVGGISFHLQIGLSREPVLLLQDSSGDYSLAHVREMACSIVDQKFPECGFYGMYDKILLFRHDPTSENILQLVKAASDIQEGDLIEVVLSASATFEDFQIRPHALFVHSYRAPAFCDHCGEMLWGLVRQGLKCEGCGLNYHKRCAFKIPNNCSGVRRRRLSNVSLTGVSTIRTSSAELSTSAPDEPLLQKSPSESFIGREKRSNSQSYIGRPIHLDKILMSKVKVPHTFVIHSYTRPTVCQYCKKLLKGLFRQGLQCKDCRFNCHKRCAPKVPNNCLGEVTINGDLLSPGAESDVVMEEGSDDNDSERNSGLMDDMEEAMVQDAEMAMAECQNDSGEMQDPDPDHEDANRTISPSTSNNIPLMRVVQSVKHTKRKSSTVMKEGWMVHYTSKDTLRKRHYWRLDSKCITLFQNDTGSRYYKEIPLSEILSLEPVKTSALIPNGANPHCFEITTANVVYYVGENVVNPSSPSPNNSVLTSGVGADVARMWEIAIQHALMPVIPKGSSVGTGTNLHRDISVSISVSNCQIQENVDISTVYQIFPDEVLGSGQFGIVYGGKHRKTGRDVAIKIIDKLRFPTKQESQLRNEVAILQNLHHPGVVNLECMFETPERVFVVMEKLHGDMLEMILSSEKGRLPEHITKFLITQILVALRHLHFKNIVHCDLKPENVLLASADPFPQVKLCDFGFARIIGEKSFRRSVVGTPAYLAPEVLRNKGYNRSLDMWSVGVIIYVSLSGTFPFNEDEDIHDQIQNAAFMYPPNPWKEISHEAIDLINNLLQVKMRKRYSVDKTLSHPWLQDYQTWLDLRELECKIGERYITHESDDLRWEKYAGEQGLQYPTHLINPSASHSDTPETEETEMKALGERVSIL
Kind of assay: Inhibition of human PRKD1 at 500 nM by HotSpot assay relative to control.

For assay [6], the target named is Insulin receptor (Homo sapiens) (UniProt P06213). Kind of assay: Inhibition of wild-type human Insulin receptor activation transfected in insulin-stimulated CHO-K1 cells. The format is cell-based.
Insulin receptor (Homo sapiens), sequence (P06213 28-758 limits assumed): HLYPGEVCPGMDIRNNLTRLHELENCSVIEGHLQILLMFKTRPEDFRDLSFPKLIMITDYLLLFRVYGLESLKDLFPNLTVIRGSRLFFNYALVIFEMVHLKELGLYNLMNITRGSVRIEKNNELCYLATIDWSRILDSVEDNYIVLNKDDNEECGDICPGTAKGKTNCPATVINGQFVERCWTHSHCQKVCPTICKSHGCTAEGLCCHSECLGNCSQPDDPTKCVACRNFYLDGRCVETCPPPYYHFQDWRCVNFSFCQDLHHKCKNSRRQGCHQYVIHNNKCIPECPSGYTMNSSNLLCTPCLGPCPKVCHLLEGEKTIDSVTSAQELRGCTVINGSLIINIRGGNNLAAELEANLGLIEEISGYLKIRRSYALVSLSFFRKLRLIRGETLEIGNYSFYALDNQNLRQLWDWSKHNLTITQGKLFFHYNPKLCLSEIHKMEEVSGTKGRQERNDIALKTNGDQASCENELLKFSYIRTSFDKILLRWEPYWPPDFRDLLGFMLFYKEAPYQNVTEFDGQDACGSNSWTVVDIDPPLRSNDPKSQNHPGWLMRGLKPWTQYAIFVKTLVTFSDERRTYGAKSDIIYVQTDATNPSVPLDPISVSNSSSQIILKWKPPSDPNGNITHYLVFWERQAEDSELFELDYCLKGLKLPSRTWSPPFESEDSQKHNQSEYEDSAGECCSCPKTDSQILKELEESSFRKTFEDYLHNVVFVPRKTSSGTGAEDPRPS
Insulin receptor (Homo sapiens), sequence (P06213 763-1382 limits assumed): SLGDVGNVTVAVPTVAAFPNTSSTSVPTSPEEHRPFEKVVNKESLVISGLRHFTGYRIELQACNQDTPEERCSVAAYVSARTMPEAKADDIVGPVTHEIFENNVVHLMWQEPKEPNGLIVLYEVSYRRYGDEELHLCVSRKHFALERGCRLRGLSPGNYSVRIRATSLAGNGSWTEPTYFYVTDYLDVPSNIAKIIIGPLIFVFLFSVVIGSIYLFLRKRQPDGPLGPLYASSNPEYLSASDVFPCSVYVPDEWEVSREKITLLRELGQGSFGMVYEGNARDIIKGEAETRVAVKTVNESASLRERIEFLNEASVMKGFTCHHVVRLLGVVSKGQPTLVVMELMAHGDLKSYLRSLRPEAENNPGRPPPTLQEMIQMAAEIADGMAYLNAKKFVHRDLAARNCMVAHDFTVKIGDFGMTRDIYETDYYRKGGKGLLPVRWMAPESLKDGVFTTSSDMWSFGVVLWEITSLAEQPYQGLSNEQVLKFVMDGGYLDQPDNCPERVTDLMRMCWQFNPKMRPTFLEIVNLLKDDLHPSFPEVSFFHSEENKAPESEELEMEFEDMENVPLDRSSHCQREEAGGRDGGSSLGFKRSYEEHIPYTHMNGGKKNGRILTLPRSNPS

Homeodomain-interacting protein kinase 1 (Homo sapiens), sequence (Q86Z02 whole entry, looked up): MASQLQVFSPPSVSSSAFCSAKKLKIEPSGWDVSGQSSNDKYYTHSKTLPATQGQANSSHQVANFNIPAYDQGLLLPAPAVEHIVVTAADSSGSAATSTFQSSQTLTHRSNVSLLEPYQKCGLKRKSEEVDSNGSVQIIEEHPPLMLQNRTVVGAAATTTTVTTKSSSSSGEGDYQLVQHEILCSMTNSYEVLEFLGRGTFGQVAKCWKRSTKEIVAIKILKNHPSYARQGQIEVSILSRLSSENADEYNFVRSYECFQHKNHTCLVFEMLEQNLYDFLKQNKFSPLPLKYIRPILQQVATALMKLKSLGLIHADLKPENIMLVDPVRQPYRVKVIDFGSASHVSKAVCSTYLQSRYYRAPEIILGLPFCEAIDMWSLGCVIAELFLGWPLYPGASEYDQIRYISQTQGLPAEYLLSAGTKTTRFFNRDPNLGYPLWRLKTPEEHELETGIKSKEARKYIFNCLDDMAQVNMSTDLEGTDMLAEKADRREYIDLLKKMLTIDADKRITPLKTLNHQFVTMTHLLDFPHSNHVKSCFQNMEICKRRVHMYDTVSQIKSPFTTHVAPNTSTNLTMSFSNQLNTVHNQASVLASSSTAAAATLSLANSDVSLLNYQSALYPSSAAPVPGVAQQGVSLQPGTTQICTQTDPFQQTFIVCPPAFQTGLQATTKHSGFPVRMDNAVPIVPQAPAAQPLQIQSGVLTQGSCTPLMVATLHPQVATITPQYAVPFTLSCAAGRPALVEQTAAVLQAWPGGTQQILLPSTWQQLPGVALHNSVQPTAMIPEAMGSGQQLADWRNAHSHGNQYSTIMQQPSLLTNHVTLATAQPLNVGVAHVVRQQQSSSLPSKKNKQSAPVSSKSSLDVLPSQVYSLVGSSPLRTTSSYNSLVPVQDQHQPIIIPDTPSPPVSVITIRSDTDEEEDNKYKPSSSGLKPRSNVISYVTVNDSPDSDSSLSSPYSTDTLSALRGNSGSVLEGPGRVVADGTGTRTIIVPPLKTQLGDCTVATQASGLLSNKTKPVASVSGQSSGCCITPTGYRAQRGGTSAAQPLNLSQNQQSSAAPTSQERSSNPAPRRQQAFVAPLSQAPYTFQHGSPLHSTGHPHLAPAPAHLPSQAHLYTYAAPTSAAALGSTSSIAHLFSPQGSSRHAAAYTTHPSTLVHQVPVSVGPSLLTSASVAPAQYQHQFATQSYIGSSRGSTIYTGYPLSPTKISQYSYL
Tyrosine-protein kinase Lck (Homo sapiens), sequence (P06239 2-509 limits assumed): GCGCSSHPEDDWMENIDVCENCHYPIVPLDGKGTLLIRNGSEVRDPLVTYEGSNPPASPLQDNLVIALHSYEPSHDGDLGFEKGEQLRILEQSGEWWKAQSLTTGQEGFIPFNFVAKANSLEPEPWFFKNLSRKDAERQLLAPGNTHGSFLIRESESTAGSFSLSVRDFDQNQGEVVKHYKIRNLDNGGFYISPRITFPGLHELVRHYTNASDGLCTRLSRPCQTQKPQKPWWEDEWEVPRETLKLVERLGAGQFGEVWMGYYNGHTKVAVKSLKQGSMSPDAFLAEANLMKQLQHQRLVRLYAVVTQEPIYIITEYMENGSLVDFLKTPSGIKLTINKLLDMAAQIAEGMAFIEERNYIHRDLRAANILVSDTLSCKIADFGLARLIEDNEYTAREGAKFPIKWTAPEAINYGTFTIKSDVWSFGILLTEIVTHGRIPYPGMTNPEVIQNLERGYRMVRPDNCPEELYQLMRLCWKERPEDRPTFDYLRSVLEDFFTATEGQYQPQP

Consider `Oc1n[nH]c2nnc(-c3c(-c4ccccc4)nn4ccccc34)cc12`, for which the inhibition was 0.05% in assay [1]; 0.5% in assay [2]; -1.71% in assay [3]; -0.49% in assay [4]; -0.59% in assay [5]. The inhibition result in assay [6] was “inactive”.

As to `Nc1n[nH]c2nnc(-c3c(-c4ccccc4)nn4ccccc34)cc12`, the inhibition in assay [1] is 0.68%; in assay [2], -0.77%; in assay [3], -4.88%; in assay [4], 4.93%; in assay [5], 31.6%. Further, in assay [6], the inhibition result was “inactive”.
